The Papp A→B is the apparent permeability from the apical to the basolateral side of a cell layer. In general, Papp B→A refers to the apparent permeability from the basolateral to the apical side of a cell layer.

This note sets out measurements from patent US9828350B2, “5,6-dihydro-2H-[1,4]oxazin-3-yl-amine derivatives useful as inhibitors of beta-secretase (BACE)” (Janssen Pharmaceutica NV, priority 2010, dated 2017).

Data set [1] addresses recombinant BACE1 protein (Homo sapiens, UniProt P56817). As to the kind of experiment: Biochemical FRET based assay. The note with it: recombinant BACE1 1 μg/ml, 120 minutes at room temperature, pH 5.0; for IC50: read-out: Biochemical FRET based assay pIC50 (converted). Summed up: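 Proteolysis was read as the rise in donor fluorescence (320 nm excitation, 405 nm emission) from T0 to T120, expressed in RFU. The reaction ran 120 minutes at room temperature at pH 5.0 in citrate buffer with 4% DMSO, using […] quenched Swedish APP peptide and 1 μg/ml BACE1.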

Data set [2] relates to Abeta total. Put plainly: Cellular αLisa assay in SKNBE2 cells, Abeta total. The data set is classed as cell-based, human. The following applies: incubated for 18 hours; for IC50: Homo sapiens, SKNBE2, 18 h, read-out: Cellular αLisa assay in SKNBE2 cells Abetatotal pIC50 (converted). In short, it runs like this: (§1)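 Secreted Abeta levels were measured by sandwich αLisa, pairing biotin-AbN/25 donor beads with Ab4G8 acceptor beads for total Abeta or cAb42/26 for Abeta 1-42, read at 615 nm after 650 nm excitation following 1 hour. Cells were SKNBE2 expressing wild-type hAPP695, exposed to compound for 18 hours.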

In data set [3] the test system is Abeta 1-42. Put plainly: Cellular αLisa assay in SKNBE2 cells, Abeta 1-42. The note with it: incubated for 18 hours; for IC50: Homo sapiens, SKNBE2, 18 h, read-out: Cellular αLisa assay in SKNBE2 cells Abeta 42 pIC50 (converted). The data set is classed as cell-based, human. In short, it runs like this: as §1
For data set [4], the system named is Aβ42. As to the kind of experiment: Demonstration of in vivo efficacy, brain Aβ42 lowering (ELISA). The note with it: mouse brain, 30 mpk. The source says: (§2) To determine whether acute administration of an Aβ42 peptide lowering agent would reduce Aβ peptide levels in vivo, non-transgenic rodents, e.g. mice or rats were used. Animals treated with the Aβ peptide lowering agent were examined and compared to those untreated or treated with vehicle and brain levels of soluble Aβ42 and total Aβ were quantitated by standard techniques, for example, using ELISA.
(§3) A typical protocol for measuring Aβ42 lowering in vivo is shown but it is only one of many variations that could be used to optimize the levels of detectable Aβ. For example, Aβ peptide lowering compounds were formulated in 20% hydroxypropyl 3 cyclodextrin. The Aβ peptide lowering agents were administered as a single oral dose (p.o.) or a single subcutaneous dose (s.c.) to overnight fasted animals. After a certain time, usually 2 or 4 h (as indicated in Table 19), the animals were sacrificed and Aβ42 levels were analysed.
(§4) Blood was collected by decapitation and exsanguinations in EDTA-treated collection tubes. Blood was centrifuged at 1900 g for 10 minutes (min) at 4° C. and the plasma recovered and flash frozen for later analysis. The brain was removed from the cranium and hindbrain. The cerebellum was removed and the left and right hemisphere were separated. The left hemisphere was stored at −18° C. for quantitative analysis of test compound levels. The right hemisphere was rinsed with phosphate-buffered saline (PBS) buffer and immediately frozen on dry ice and stored at −80° C. until homogenization for biochemical assays.
(§5) Mouse brains from non-transgenic animals were resuspended in 8 volumes of 0.4% DEA (diethylamine)/50 mM NaCl containing protease inhibitors (Roche-11873580001 or 04693159001) per gram of tissue, e.g. for 0.158 g brain, add 1.264 ml of 0.4% DEA. All samples were homogenized in the FastPrep-24 system (MP Biomedicals) using lysing matrix D (MPBio #6913-100) at 6 m/s for 20 seconds. Homogenates were centrifuged at 221.300×g for 50 min. The resulting high speed supernatants were then transferred to fresh eppendorf tubes. Nine parts of supernatant were neutralized with 1 part 0.5 M Tris-HCl pH 6.8 and used to quantify Aβtotal and Aβ42.
(§6) To quantify the amount of Aβtotal and Aβ42 in the soluble fraction of the brain homogenates, Enzyme-Linked-Immunosorbent-Assays were used. Briefly, the standards (a dilution of synthetic Aβ1-40 and Aβ1-42, Bachem) were prepared in 1.5 ml Eppendorf tube in Ultraculture, with final concentrations ranging from 10000 to 0.3 pg/ml. The samples and standards were co-incubated with HRPO-labelled N-terminal antibody for Aβ42 detection and with the biotinylated mid-domain antibody 4G8 for Aβtotal detection. […] The plate was allowed to incubate overnight at 4° C. in order to allow formation of the antibody-amyloid complex. Following this incubation and subsequent wash steps the ELISA for Aβ42 quantification was finished by addition of Quanta Blu fluorogenic peroxidase substrate according to the manufacturer's instructions (Pierce Corp., Rockford, Ill.). A reading was performed after 10 to 15 min (excitation 320 nm/emission 420 nm).
In general terms: An ELISA detects its analyte on a solid surface through an enzyme-linked reagent.

The test system of data set [5] is Aβtotal. As to the kind of experiment: Demonstration of in vivo efficacy, brain Aβtotal lowering (ELISA). The following applies: mouse brain, 30 mpk.
Source text: as §2, §3, §4, §5, §6
For Aβtotal detection, a Streptavidine-Peroxidase-Conjugate was added, followed 60 min later by an additional wash step and addition of Quanta Blu fluorogenic peroxidase substrate according to the manufacturer's instructions (Pierce Corp., Rockford, Ill.). A reading was performed after 10 to 15 min (excitation 320 nm/emission 420 nm).

Data set [6] deals with T1, P-gp (Homo sapiens, UniProt P08183).
T1 construct: expressed in transfected cells; host or cells: LLC-PK1 cells stably transduced with MDR1 (LLC-MDR1)
T1 sequence (P08183 whole entry): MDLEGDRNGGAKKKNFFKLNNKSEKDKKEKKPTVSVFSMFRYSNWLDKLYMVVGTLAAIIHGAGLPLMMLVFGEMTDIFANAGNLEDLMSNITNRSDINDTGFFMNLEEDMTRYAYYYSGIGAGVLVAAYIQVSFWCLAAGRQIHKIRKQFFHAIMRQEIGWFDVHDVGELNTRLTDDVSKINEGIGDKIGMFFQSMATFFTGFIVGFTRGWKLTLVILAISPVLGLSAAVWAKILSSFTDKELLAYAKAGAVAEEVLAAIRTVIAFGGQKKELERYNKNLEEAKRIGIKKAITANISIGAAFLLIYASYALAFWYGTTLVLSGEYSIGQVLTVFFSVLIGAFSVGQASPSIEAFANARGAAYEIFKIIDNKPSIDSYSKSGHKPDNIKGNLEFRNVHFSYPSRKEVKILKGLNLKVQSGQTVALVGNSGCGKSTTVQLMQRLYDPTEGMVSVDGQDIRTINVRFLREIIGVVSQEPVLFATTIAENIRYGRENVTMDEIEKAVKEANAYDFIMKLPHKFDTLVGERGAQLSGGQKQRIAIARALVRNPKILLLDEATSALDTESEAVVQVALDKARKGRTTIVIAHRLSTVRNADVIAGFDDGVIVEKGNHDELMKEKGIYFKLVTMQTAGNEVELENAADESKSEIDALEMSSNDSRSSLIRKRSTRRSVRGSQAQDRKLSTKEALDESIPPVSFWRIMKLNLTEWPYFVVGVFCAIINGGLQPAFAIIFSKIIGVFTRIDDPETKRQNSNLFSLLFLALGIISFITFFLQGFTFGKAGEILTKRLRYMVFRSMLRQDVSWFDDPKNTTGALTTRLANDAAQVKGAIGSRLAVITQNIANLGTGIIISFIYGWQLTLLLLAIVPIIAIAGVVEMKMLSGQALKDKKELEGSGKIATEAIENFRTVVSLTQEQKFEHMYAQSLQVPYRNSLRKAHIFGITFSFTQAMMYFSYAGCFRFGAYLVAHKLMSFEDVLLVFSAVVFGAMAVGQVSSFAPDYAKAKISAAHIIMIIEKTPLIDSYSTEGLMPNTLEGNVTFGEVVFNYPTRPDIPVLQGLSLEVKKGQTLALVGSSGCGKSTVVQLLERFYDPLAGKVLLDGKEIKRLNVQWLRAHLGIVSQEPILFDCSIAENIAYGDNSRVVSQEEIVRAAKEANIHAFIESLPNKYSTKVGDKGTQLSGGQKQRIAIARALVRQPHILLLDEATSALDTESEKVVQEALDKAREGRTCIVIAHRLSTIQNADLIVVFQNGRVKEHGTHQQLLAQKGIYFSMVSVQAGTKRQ
Put plainly: Transepithelial transport of test compounds through LLC-MDR1 monolayers. The following applies: for Papp A→B at 120 min, 1 μM: read-out: A to B (Apparent Permeability, Papp); for Papp B→A at 120 min, 1 μM: read-out: B to A (Apparent Permeability, Papp). The data set is classed as in vitro ADME. How it is done: Brief Assay Description for the Measurement of Transepithelial Transport of Test Compounds Through LLC-MDR1 Monolayers
The purpose of this assay was to assess both the in vitro passive permeability of test compounds and their ability to be transported substrates of P-gp using LLC-PK1 cells stably transduced with MDR1 in a trans-well system. The positive control for transport was ^3H-digoxin (30 nM) and the positive control inhibitor was GF120918 (5 μM). The marker compound for low permeability was ^14C-Mannitol (1 μM). The test compound concentration was 1 μM.
The integrity of the cellular monolayer was assessed in each incubation well through the inclusion of the fluorescent, low permeability marker compound, Fluorescein.
In detail, LLC-MDR1 cells were seeded on 24-well cell culture inserts (Millicell®-PCF, 0.4 μm, 13 mm diameter, 0.7 cm^2) at 400,000 cells/cm^2. Cell culture medium consisted of Medium 199 supplemented with 10% Foetal Bovine Serum (FBS) and 100 U/ml Penicillin/streptomycin and was replaced the day after seeding and the day before the experiment. The transport experiment was performed 5 days after seeding. On the day of the experiment, solutions of the test compounds were applied to the apical or basolateral side of the monolayers to assess transport in the A to B and B to A directions, respectively. The medium used in the assay was (OPTI-MEM (1×) (GIBCO) with 1 w/v % Bovine Serum Albumin. Inserts were incubated at 37° C. in a humidified incubator containing 5% CO2. Samples from the acceptor and donor compartments were collected after an incubation time of 120 min, to assess the permeability and to allow estimation of the test compound recovery during the experiment, respectively. Transport experiments were performed in triplicate. Absolute test compound concentrations were measured using LC-MS/MS and quantified via a calibration curve.

recombinant BACE1 protein, sequence (P56817 46-501): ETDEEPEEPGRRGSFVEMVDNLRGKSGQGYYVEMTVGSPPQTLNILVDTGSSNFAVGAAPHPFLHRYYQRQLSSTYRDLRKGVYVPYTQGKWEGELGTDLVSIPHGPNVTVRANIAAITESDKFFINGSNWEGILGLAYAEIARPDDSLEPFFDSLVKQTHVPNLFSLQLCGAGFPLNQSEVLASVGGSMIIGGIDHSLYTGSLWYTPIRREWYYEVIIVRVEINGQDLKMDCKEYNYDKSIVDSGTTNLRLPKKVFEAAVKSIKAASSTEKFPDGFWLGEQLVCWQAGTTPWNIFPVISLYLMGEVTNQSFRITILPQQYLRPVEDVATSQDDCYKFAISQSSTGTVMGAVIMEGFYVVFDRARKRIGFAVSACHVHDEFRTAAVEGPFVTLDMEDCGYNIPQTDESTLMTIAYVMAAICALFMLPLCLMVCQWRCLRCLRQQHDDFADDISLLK

With `C[C@@]1(c2cc(-c3cncnc3)c(F)cc2F)N=C(N)CO[C@H]1F` (single isomer, unassigned) [Compound 82, (S*,S*)-5-(2,4-difluoro-5-pyrimidin-5-ylphenyl)-6-fluoro-5-methyl-5,6-dihydro-2H-1,4-oxazin-3-amine], the IC50 in data set [1] is 631 nM; in data set [2], 245 nM; in data set [3], 251 nM. In addition, the “Aβ42 (% Ctrl)_Mean” value in data set [4] (s.c., 2 h) was 57 % Ctrl. In addition, the “Aβtotal (% Ctrl)_Mean” value in data set [5] (s.c., 2 h) turned out to be 44 % Ctrl. The efflux ratio at 120 min, 1 μM in data set [6] (pig, LLC-PK1, LLC-MDR1 monolayers, ratio of B to A and A to B permeation rates, read-out: BA/AB) worked out at 2.3. In addition, the apparent permeability from apical to basolateral (Papp A→B) at 120 min, 1 μM in data set [6] (pig, LLC-PK1) came to 10.5 ×10⁻⁶ cm/s. In addition, in data set [6] (pig, LLC-PK1), the apparent permeability from basolateral to apical (Papp B→A) at 120 min, 1 μM was determined as 23.9 ×10⁻⁶ cm/s.
As for `C[C@]1(c2cc(NC(=O)c3ccc(C#N)cn3)ccc2F)N=C(N)CO[C@H]1C(F)(F)F` [Compound 169], the IC50 in data set [1] was 56.2 nM; in data set [2] it was 6.76 nM; in data set [3], 6.92 nM. Also, in data set [4] (p.o., 4 h), the “Aβ42 (% Ctrl)_Mean” value is on record as 38 % Ctrl. Besides, the “Aβtotal (% Ctrl)_Mean” value in data set [5] (p.o., 4 h) turned out to be 39 % Ctrl. In data set [6] (pig, LLC-PK1), the Papp A→B at 120 min, 1 μM was determined as 10.5 ×10⁻⁶ cm/s. The Papp B→A at 120 min, 1 μM in data set [6] (pig, LLC-PK1) is 19 ×10⁻⁶ cm/s.
Regarding `CC1(c2cc(NC(=O)c3ccc(Cl)cn3)ccc2F)N=C(N)COC1F` (single isomer, unassigned) [Compound 134], the “Cellular αLisa assay in SKNBE2 cells Abetatotal pIC50” value in data set [2] is 8.42. For the same compound, the “Cellular αLisa assay in SKNBE2 cells Abeta 42 pIC50” value in data set [3] is recorded as 8.39. Also, in data set [4] (p.o., 4 h), the “Aβ42 (% Ctrl)_Mean” value was 27 % Ctrl. Moreover, the “Aβtotal (% Ctrl)_Mean” value in data set [5] (p.o., 4 h) stood at 35 % Ctrl. In addition, in data set [6] (pig, LLC-PK1), the Papp A→B at 120 min, 1 μM is 8.9 ×10⁻⁶ cm/s and the apparent permeability from basolateral to apical (Papp B→A) at 120 min, 1 μM amounted to 17.7 ×10⁻⁶ cm/s.
Take `COc1cnc(C(=O)Nc2ccc(F)c([C@@]3(C)N=C(N)CO[C@H]3C(F)(F)F)c2)cn1` [Compound 166, (2R,3R)—N-{3-[5-amino-3-methyl-2-(trifluoromethyl)-3,6-dihydro-2H-1,4-oxazin-3-yl]-4-fluorophenyl}-5-methoxypyrazine-2-carboxamide]: the IC50 is 50.1 nM in data set [1], 12.3 nM in data set [2] and 12.6 nM in data set [3]. The “Aβ42 (% Ctrl)_Mean” value in data set [4] (p.o., 4 h) is 50 % Ctrl. In data set [5] (p.o., 4 h), the “Aβtotal (% Ctrl)_Mean” value is 43 % Ctrl. In addition, the Papp A→B at 120 min, 1 μM in data set [6] (pig, LLC-PK1) was 13.7 ×10⁻⁶ cm/s. The Papp B→A at 120 min, 1 μM in data set [6] (pig, LLC-PK1) worked out at 13.6 ×10⁻⁶ cm/s.
Consider `COc1cnc(C(=O)Nc2ccc(F)c([C@@]3(C4CC4)N=C(N)CO[C@@H]3F)c2)cn1` [Compound 216], for which the IC50 in data set [2] is 631 nM. In addition, the “Aβ42 (% Ctrl)_Mean” value in data set [4] (p.o., 4 h) came out at 45 % Ctrl. Also, in data set [5] (p.o., 4 h), the “Aβtotal (% Ctrl)_Mean” value turned out to be 39 % Ctrl. Also, in data set [6] (pig, LLC-PK1), the Papp A→B at 120 min, 1 μM is 12 ×10⁻⁶ cm/s and the Papp B→A at 120 min, 1 μM stood at 12 ×10⁻⁶ cm/s.
`CC1(c2cc(-c3cncnc3)c(F)cc2F)COCC(N)=N1` (single isomer, unassigned) [Compound 55]: the “Biochemical FRET based assay pIC50” value in data set [1] was found to be 5.55. Also, the “Cellular αLisa assay in SKNBE2 cells Abetatotal pIC50” value in data set [2] was 6.99. In addition, the “Cellular αLisa assay in SKNBE2 cells Abeta 42 pIC50” value in data set [3] came out at 6.89. For the same compound, in data set [4] (s.c., 4 h), the “Aβ42 (% Ctrl)_Mean” value is listed as 88 % Ctrl. Further, the “Aβtotal (% Ctrl)_Mean” value in data set [5] (s.c., 4 h) was found to be 87 % Ctrl. The “A to B (Apparent Permeability, Papp)” value in data set [6] (LLC-MDR1 monolayers, 1 μM test compound, 120 minutes, apical to basolateral, absence of GF120918) stood at 9.5 ×10⁻⁶ cm/s. In data set [6] (LLC-MDR1 monolayers, 1 μM test compound, 120 minutes, basolateral to apical), the “B to A (Apparent Permeability, Papp)” value is 34.4 ×10⁻⁶ cm/s. Further, in data set [6] (LLC-MDR1 monolayers, ratio of B to A and A to B permeation rates), the BA/AB stood at 3.6.
